Laboratory results: US20260166128A1, “HUMAN AMYLIN ANALOG, AND DERIVATIVE THEREOF AND USE THEREOF” (priority 2022, published 2026)
Numbered stars: 1 amine (or outer) side, 2 acyl side, 3 side chain; on linkers, the order of the positions; unused ones are H or OH. Bridge positions count the residues as written; N and C are the ends. Square brackets hold non-standard residues; d marks the D form. Peptide text beside a SMILES is read from it. * marks the point of attachment. C20 diacid = O=C(O)CCCCCCCCCCCCCCCCCCC(=O)*; γGlu = O=C(O)[C@H](CCC(=O)[*:2])N[*:1]; Cit = NC(=O)NCCC[C@H](N)C(=O)O; Orn = NCCC[C@H](N)C(=O)O; Dab = NCC[C@H](N)C(=O)O; Dap = NC[C@H](N)C(=O)O

target: T1, human amylin receptor (Homo sapiens, UniProt O60896+P30988); assay: Luciferase assay of amylin derivatives in amylin receptor/CRE-luc CHO cell line; assay type: cell-based; settings: CHO-K1/Ga15/AMY3 CRE-luc cells, 24 hours incubation, F12 medium containing 10% FBS; read-out: EC50
T1 construct: host or cells: CHO-K1/Ga15/AMY3 cells, further stably transfected with a CRE-luciferase plasmid
T1 sequence (P30988 25-474): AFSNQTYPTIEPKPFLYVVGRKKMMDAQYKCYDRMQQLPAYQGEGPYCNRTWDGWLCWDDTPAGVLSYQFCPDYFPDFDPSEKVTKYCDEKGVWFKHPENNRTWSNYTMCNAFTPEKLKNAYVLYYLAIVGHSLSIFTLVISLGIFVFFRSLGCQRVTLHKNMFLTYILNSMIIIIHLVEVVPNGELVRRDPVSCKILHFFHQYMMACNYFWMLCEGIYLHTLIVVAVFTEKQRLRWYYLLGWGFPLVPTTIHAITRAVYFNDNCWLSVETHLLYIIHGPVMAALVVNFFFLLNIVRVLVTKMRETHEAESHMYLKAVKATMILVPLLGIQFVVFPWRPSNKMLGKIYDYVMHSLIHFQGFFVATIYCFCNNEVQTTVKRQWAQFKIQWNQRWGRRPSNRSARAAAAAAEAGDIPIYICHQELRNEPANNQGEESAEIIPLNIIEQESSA
T1 sequence (O60896 24-148 partner): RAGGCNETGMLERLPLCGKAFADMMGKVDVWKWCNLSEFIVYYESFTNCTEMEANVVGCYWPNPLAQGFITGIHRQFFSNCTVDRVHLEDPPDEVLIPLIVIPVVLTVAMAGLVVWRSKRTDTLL
Procedure: The experiment was intended to detect the activity or efficacy of the amylin derivatives on a human amylin receptor in vitro by luciferase assay.
50 μL of growth medium (F12 medium containing 10% FBS) was added into each well of a white 96-well plate, and the stably transfected amylin/CRE-lue CHO cells were inoculated into the white 96-well plate at a density of about 20,000 cells/well for activity determination.

SMILES	EC50 [nM]
CC[C@H](C)[C@H](NC(=O)[C@@H]1CCCN1C(=O)[C@H](CC(=O)O)NC(=O)[C@H](CC(C)C)NC(=O)[C@H](CC(N)=O)NC(=O)[C@H](CC(N)=O)NC(=O)[C@H](CO)NC(=O)[C@H](CO)NC(=O)[C@H](Cc1c[nH]cn1)NC(=O)[C@H](CCCNC(=N)N)NC(=O)[C@H](CC(C)C)NC(=O)[C@H](Cc1ccccc1)NC(=O)[C@H](CC(=O)O)NC(=O)[C@H](C)NC(=O)[C@H](CC(C)C)NC(=O)[C@H](CCCNC(=N)N)NC(=O)[C@H](CCC(N)=O)NC(=O)[C@@H](NC(=O)[C@H](C)NC(=O)[C@@H]1CSSC[C@H](NC(=O)[C@H](CCCCN)NC(=O)CC[C@H](NC(=O)CCCCCCCCCCCCCCCCCCC(=O)O)C(=O)O)C(=O)N[C@@H](CC(N)=O)C(=O)N[C@@H]([C@@H](C)O)C(=O)N[C@@H](C)C(=O)N[C@@H]([C@@H](C)O)C(=O)N1)[C@@H](C)O)C(=O)N[C@@H](CC(C)C)C(=O)N1CCC[C@H]1C(=O)N1CCC[C@H]1C(=O)N[C@H](C(=O)N[C@@H](CC(N)=O)C(=O)N[C@H](C(=O)NCC(=O)N[C@@H](CO)C(=O)N[C@@H](CC(N)=O)C(=O)N[C@H](C(=O)N1CCC[C@H]1C(N)=O)[C@@H](C)O)C(C)C)[C@@H](C)O [PD164] ({C20 diacid-γGlu}-KCNTATCATQRLADFLRHSSNNLDPILPPTNVGSNTP-NH2; disulfide 2-7 (inferred))	0.111
CC[C@H](C)[C@H](NC(=O)[C@@H]1CCCN1C(=O)[C@H](CC(N)=O)NC(=O)[C@H](CC(C)C)NC(=O)[C@H](CC(N)=O)NC(=O)[C@H](CC(N)=O)NC(=O)[C@H](CO)NC(=O)[C@H](CO)NC(=O)[C@H](Cc1c[nH]cn1)NC(=O)[C@H](CCCNC(=N)N)NC(=O)[C@H](CC(C)C)NC(=O)[C@H](Cc1ccccc1)NC(=O)[C@H](CC(=O)O)NC(=O)[C@H](C)NC(=O)[C@H](CC(C)C)NC(=O)[C@H](CCCNC(=N)N)NC(=O)[C@H](CCC(N)=O)NC(=O)[C@@H](NC(=O)[C@H](C)NC(=O)[C@@H]1CSSC[C@H](NC(=O)[C@H](CCCCN)NC(=O)CC[C@H](NC(=O)CCCCCCCCCCCCCCCCCCC(=O)O)C(=O)O)C(=O)N[C@@H](CC(N)=O)C(=O)N[C@@H]([C@@H](C)O)C(=O)N[C@@H](C)C(=O)N[C@@H]([C@@H](C)O)C(=O)N1)[C@@H](C)O)C(=O)N[C@@H](CC(C)C)C(=O)N1CCC[C@H]1C(=O)N1CCC[C@H]1C(=O)N[C@H](C(=O)N[C@@H](CC(N)=O)C(=O)N[C@H](C(=O)NCC(=O)N[C@@H](CO)C(=O)N[C@@H](CC(N)=O)C(=O)N[C@H](C(=O)N1CCC[C@H]1C(N)=O)[C@@H](C)O)C(C)C)[C@@H](C)O [PD165] ({C20 diacid-γGlu}-KCNTATCATQRLADFLRHSSNNLNPILPPTNVGSNTP-NH2; disulfide 2-7 (inferred))	0.05
CC[C@H](C)[C@H](NC(=O)[C@@H]1CCCN1C(=O)[C@H](CO)NC(=O)[C@H](CC(C)C)NC(=O)[C@H](CC(N)=O)NC(=O)[C@H](CC(N)=O)NC(=O)[C@H](CO)NC(=O)[C@H](CO)NC(=O)[C@H](Cc1c[nH]cn1)NC(=O)[C@H](CCCNC(=N)N)NC(=O)[C@H](CC(C)C)NC(=O)[C@H](Cc1ccccc1)NC(=O)[C@H](CC(=O)O)NC(=O)[C@H](C)NC(=O)[C@H](CC(C)C)NC(=O)[C@H](CCCNC(=N)N)NC(=O)[C@H](CCC(N)=O)NC(=O)[C@@H](NC(=O)[C@H](C)NC(=O)[C@@H]1CSSC[C@H](NC(=O)[C@H](CCCCN)NC(=O)CC[C@H](NC(=O)CCCCCCCCCCCCCCCCCCC(=O)O)C(=O)O)C(=O)N[C@@H](CC(N)=O)C(=O)N[C@@H]([C@@H](C)O)C(=O)N[C@@H](C)C(=O)N[C@@H]([C@@H](C)O)C(=O)N1)[C@@H](C)O)C(=O)N[C@@H](CC(C)C)C(=O)N1CCC[C@H]1C(=O)N1CCC[C@H]1C(=O)N[C@H](C(=O)N[C@@H](CC(N)=O)C(=O)N[C@H](C(=O)NCC(=O)N[C@@H](CO)C(=O)N[C@@H](CC(N)=O)C(=O)N[C@H](C(=O)N1CCC[C@H]1C(N)=O)[C@@H](C)O)C(C)C)[C@@H](C)O [PD166] ({C20 diacid-γGlu}-KCNTATCATQRLADFLRHSSNNLSPILPPTNVGSNTP-NH2; disulfide 2-7 (inferred))	0.054

Results, then the compound that gave them:

EC50 [nM]	SMILES
0.041	CC[C@H](C)[C@H](NC(=O)[C@@H]1CCCN1C(=O)[C@H](CN)NC(=O)[C@H](CC(C)C)NC(=O)[C@H](CC(N)=O)NC(=O)[C@H](CC(N)=O)NC(=O)[C@H](CO)NC(=O)[C@H](CO)NC(=O)[C@H](Cc1c[nH]cn1)NC(=O)[C@H](CCCNC(=N)N)NC(=O)[C@H](CC(C)C)NC(=O)[C@H](Cc1ccccc1)NC(=O)[C@H](CC(=O)O)NC(=O)[C@H](C)NC(=O)[C@H](CC(C)C)NC(=O)[C@H](CCCNC(=N)N)NC(=O)[C@H](CCC(N)=O)NC(=O)[C@@H](NC(=O)[C@H](C)NC(=O)[C@@H]1CSSC[C@H](NC(=O)[C@H](CCCCN)NC(=O)CC[C@H](NC(=O)CCCCCCCCCCCCCCCCCCC(=O)O)C(=O)O)C(=O)N[C@@H](CC(N)=O)C(=O)N[C@@H]([C@@H](C)O)C(=O)N[C@@H](C)C(=O)N[C@@H]([C@@H](C)O)C(=O)N1)[C@@H](C)O)C(=O)N[C@@H](CC(C)C)C(=O)N1CCC[C@H]1C(=O)N1CCC[C@H]1C(=O)N[C@H](C(=O)N[C@@H](CC(N)=O)C(=O)N[C@H](C(=O)NCC(=O)N[C@@H](CO)C(=O)N[C@@H](CC(N)=O)C(=O)N[C@H](C(=O)N1CCC[C@H]1C(N)=O)[C@@H](C)O)C(C)C)[C@@H](C)O [PD168] ({C20 diacid-γGlu}-KCNTATCATQRLADFLRHSSNNL[Dap]PILPPTNVGSNTP-NH2; disulfide 2-7 (inferred))
0.039	CC[C@H](C)[C@H](NC(=O)[C@@H]1CCCN1C(=O)[C@H](CCN)NC(=O)[C@H](CC(C)C)NC(=O)[C@H](CC(N)=O)NC(=O)[C@H](CC(N)=O)NC(=O)[C@H](CO)NC(=O)[C@H](CO)NC(=O)[C@H](Cc1c[nH]cn1)NC(=O)[C@H](CCCNC(=N)N)NC(=O)[C@H](CC(C)C)NC(=O)[C@H](Cc1ccccc1)NC(=O)[C@H](CC(=O)O)NC(=O)[C@H](C)NC(=O)[C@H](CC(C)C)NC(=O)[C@H](CCCNC(=N)N)NC(=O)[C@H](CCC(N)=O)NC(=O)[C@@H](NC(=O)[C@H](C)NC(=O)[C@@H]1CSSC[C@H](NC(=O)[C@H](CCCCN)NC(=O)CC[C@H](NC(=O)CCCCCCCCCCCCCCCCCCC(=O)O)C(=O)O)C(=O)N[C@@H](CC(N)=O)C(=O)N[C@@H]([C@@H](C)O)C(=O)N[C@@H](C)C(=O)N[C@@H]([C@@H](C)O)C(=O)N1)[C@@H](C)O)C(=O)N[C@@H](CC(C)C)C(=O)N1CCC[C@H]1C(=O)N1CCC[C@H]1C(=O)N[C@H](C(=O)N[C@@H](CC(N)=O)C(=O)N[C@H](C(=O)NCC(=O)N[C@@H](CO)C(=O)N[C@@H](CC(N)=O)C(=O)N[C@H](C(=O)N1CCC[C@H]1C(N)=O)[C@@H](C)O)C(C)C)[C@@H](C)O [PD169] ({C20 diacid-γGlu}-KCNTATCATQRLADFLRHSSNNL[Dab]PILPPTNVGSNTP-NH2; disulfide 2-7 (inferred))
0.041	CC[C@H](C)[C@H](NC(=O)[C@@H]1CCCN1C(=O)[C@H](CCCN)NC(=O)[C@H](CC(C)C)NC(=O)[C@H](CC(N)=O)NC(=O)[C@H](CC(N)=O)NC(=O)[C@H](CO)NC(=O)[C@H](CO)NC(=O)[C@H](Cc1c[nH]cn1)NC(=O)[C@H](CCCNC(=N)N)NC(=O)[C@H](CC(C)C)NC(=O)[C@H](Cc1ccccc1)NC(=O)[C@H](CC(=O)O)NC(=O)[C@H](C)NC(=O)[C@H](CC(C)C)NC(=O)[C@H](CCCNC(=N)N)NC(=O)[C@H](CCC(N)=O)NC(=O)[C@@H](NC(=O)[C@H](C)NC(=O)[C@@H]1CSSC[C@H](NC(=O)[C@H](CCCCN)NC(=O)CC[C@H](NC(=O)CCCCCCCCCCCCCCCCCCC(=O)O)C(=O)O)C(=O)N[C@@H](CC(N)=O)C(=O)N[C@@H]([C@@H](C)O)C(=O)N[C@@H](C)C(=O)N[C@@H]([C@@H](C)O)C(=O)N1)[C@@H](C)O)C(=O)N[C@@H](CC(C)C)C(=O)N1CCC[C@H]1C(=O)N1CCC[C@H]1C(=O)N[C@H](C(=O)N[C@@H](CC(N)=O)C(=O)N[C@H](C(=O)NCC(=O)N[C@@H](CO)C(=O)N[C@@H](CC(N)=O)C(=O)N[C@H](C(=O)N1CCC[C@H]1C(N)=O)[C@@H](C)O)C(C)C)[C@@H](C)O [PD170] ({C20 diacid-γGlu}-KCNTATCATQRLADFLRHSSNNL[Orn]PILPPTNVGSNTP-NH2; disulfide 2-7 (inferred))
0.053	CC[C@H](C)[C@H](NC(=O)[C@@H]1CCCN1C(=O)[C@H](CCCNC(N)=O)NC(=O)[C@H](CC(C)C)NC(=O)[C@H](CC(N)=O)NC(=O)[C@H](CC(N)=O)NC(=O)[C@H](CO)NC(=O)[C@H](CO)NC(=O)[C@H](Cc1c[nH]cn1)NC(=O)[C@H](CCCNC(=N)N)NC(=O)[C@H](CC(C)C)NC(=O)[C@H](Cc1ccccc1)NC(=O)[C@H](CC(=O)O)NC(=O)[C@H](C)NC(=O)[C@H](CC(C)C)NC(=O)[C@H](CCCNC(=N)N)NC(=O)[C@H](CCC(N)=O)NC(=O)[C@@H](NC(=O)[C@H](C)NC(=O)[C@@H]1CSSC[C@H](NC(=O)[C@H](CCCCN)NC(=O)CC[C@H](NC(=O)CCCCCCCCCCCCCCCCCCC(=O)O)C(=O)O)C(=O)N[C@@H](CC(N)=O)C(=O)N[C@@H]([C@@H](C)O)C(=O)N[C@@H](C)C(=O)N[C@@H]([C@@H](C)O)C(=O)N1)[C@@H](C)O)C(=O)N[C@@H](CC(C)C)C(=O)N1CCC[C@H]1C(=O)N1CCC[C@H]1C(=O)N[C@H](C(=O)N[C@@H](CC(N)=O)C(=O)N[C@H](C(=O)NCC(=O)N[C@@H](CO)C(=O)N[C@@H](CC(N)=O)C(=O)N[C@H](C(=O)N1CCC[C@H]1C(N)=O)[C@@H](C)O)C(C)C)[C@@H](C)O [PD171] ({C20 diacid-γGlu}-KCNTATCATQRLADFLRHSSNNL[Cit]PILPPTNVGSNTP-NH2; disulfide 2-7 (inferred))
